17 molecules from patent publication US9695133B2, “Quinazolinone-based oncogenic-RAS-selective lethal compounds and their use” (THE TRUSTEES OF COLUMBIA UNIVERSITY IN THE CITY OF NEW YORK, priority 2012, dated 2017) can be followed below.

As a reminder, the EC50 is the concentration at which the effect is half-maximal.

Read-outs that look alike come from different tables or passages of the source.

Test [1] relates to BJeH, BJeHLT, BJeLR and DRD cells. Format: cell-based. The conditions noted are these: for RSL phenotype (oncogenic-RAS-selective lethality): four BJ-derived cell lines, with and without HRAS G12V; for Selectivity score: EC50 (BJeH)/EC50 (BJeLR).
The next test concerns BJeLR cells. Description: RSL testing: growth inhibition (alamar blue) in BJeLR cells. Format: cell-based. The note with it: Homo sapiens. How it is done:
Cell viability was determined using alamar blue and percent growth inhibition computed as described previously (Id.).
In general terms: Resazurin is reduced to fluorescent resorufin, in cell work by metabolically active cells.

[2] abbreviates: cell line not in head, footnote names EC50 (BJeLR), read-out: EC50.

For the molecule `CC(C)Oc1ccc(C=O)cc1-n1c(CN2CCN(C(=O)COc3ccc(Cl)cc3)CC2)nc2ccccc2c1=O` [AE, 3-(2-((4-(2-(4-chlorophenoxy)ethanoyl)piperazin-1-yl)methyl)-4-oxoquinazolin-3(4H)-yl)-4-isopropoxybenzaldehyde], in test [1], the “RSL phenotype (oncogenic-RAS-selective lethality)” value is “retained the RSL phenotype”.
On to `Nc1nc[nH]n1` [ATZ], for which, in test [1], the “RSL phenotype (oncogenic-RAS-selective lethality)” value is listed as “none of the other anti-oxidant targeting compounds displayed an RSL phenotype”.
On to `CCN(CC)Cc1ccc(OC(C)C)c(-n2c(CN3CCN(C(=O)COc4ccc(Cl)cc4)CC3)nc3ccccc3c2=O)c1` [Compound 15], for which the EC50 in the test on BJeLR cells (BJeLR, read-out: EC50 (BJeLR)) was found to be 1680 nM. This molecule registered a Selectivity score in test [1] of 4.1.
For `CC(C)Oc1ccc(N2CCN(C)CC2)cc1-n1c(CN2CCN(C(=O)COc3ccc(Cl)cc3)CC2)nc2ccccc2c1=O` [Compound 17], in that order: 900 nM and 7.3.
In the case of `COCCN(CCOC)Cc1ccc(OC(C)C)c(-n2c(CN3CCN(C(=O)COc4ccc(Cl)cc4)CC3)nc3ccccc3c2=O)c1` [Compound 18], in the test with BJeLR cells (BJeLR, read-out: EC50 (BJeLR)), the EC50 came to 140 nM. This molecule had a Selectivity score in test [1] of 5.9.
In the case of `CC(C)Oc1ccc(CN(C)CCC#N)cc1-n1c(CN2CCN(C(=O)COc3ccc(Cl)cc3)CC2)nc2ccccc2c1=O` [Compound 19], the EC50 in the test with BJeLR cells (BJeLR, read-out: EC50 (BJeLR)) came to 260 nM. Besides, the Selectivity score in test [1] is 5.1.
For `CC(C)Oc1ccc(CN(C)CCO)cc1-n1c(CN2CCN(C(=O)COc3ccc(Cl)cc3)CC2)nc2ccccc2c1=O` [Compound 21], in that order: 360 nM and 3.7.
On to `CC(C)Oc1ccc(CNCCCN(C)C)cc1-n1c(CN2CCN(C(=O)COc3ccc(Cl)cc3)CC2)nc2ccccc2c1=O` [Compound 22], for which, in the test on BJeLR cells (BJeLR, read-out: EC50 (BJeLR)), the 50% effective concentration (EC50) came out at 2300 nM. In addition, the Selectivity score in test [1] turned out to be 3.3.
Consider `CC(C)Oc1ccc(CN2CCN(CCO)CC2)cc1-n1c(CN2CCN(C(=O)COc3ccc(Cl)cc3)CC2)nc2ccccc2c1=O` [Compound 23], for which the EC50 in the test with BJeLR cells (BJeLR, read-out: EC50 (BJeLR)) is 1200 nM. For the same molecule, the Selectivity score in test [1] came out at 2.8.
For `CC(C)Oc1ccc(CNCCOCCO)cc1-n1c(CN2CCN(C(=O)COc3ccc(Cl)cc3)CC2)nc2ccccc2c1=O` [Compound 24], in that order: 2100 nM and 2.5.
Turning to `CC(C)Oc1ccc(CN2CCOCC2)cc1-n1c(CN2CCN(C(=O)COc3ccc(Cl)cc3)CC2)nc2ccccc2c1=O` [Compound 40, 2-((4-(2-(4-chlorophenoxy)ethanoyl)piperazin-1-yl)methyl)-3-(2-isopropoxy-5-(morpholinomethyl)phenyl)quinazolin-4(3H)-one], the EC50 was 130 nM with BJeLR cells (BJeLR, read-out: EC50 (BJeLR)) and 130 nM with BJeLR cells (setting [2]).
As for `CC(C)Oc1c(CN2CCOCC2)cccc1-n1c(CN2CCN(C(=O)COc3ccc(Cl)cc3)CC2)nc2ccccc2c1=O` [Compound 51], the EC50 in the test with BJeLR cells (setting [2]) stood at 1170 nM.
As for `O=[N+]([O-])c1ccc(Cl)c(Cl)c1` [DCNB], in test [1], the “RSL phenotype (oncogenic-RAS-selective lethality)” value was “none of the other anti-oxidant targeting compounds displayed an RSL phenotype”.
Regarding `CCN(CC)C(=S)S` [DETC], in test [1], the “RSL phenotype (oncogenic-RAS-selective lethality)” value is “none of the other anti-oxidant targeting compounds displayed an RSL phenotype”.
Same read-out and setting: then `CN(C)C(=O)/N=N/C(=O)N(C)C` [DIA], with “none of the other anti-oxidant targeting compounds displayed an RSL phenotype”; and `CC(C)Oc1ccncc1-n1c(CN2CCN(C(=O)COc3ccc(Cl)cc3)CC2)nc2ccccc2c1=O` [PYR, 2-((4-(2-(4-chlorophenoxy)ethanoyl)piperazin-1-yl)methyl)-3-(4-isopropoxypyridin-3-yl)quinazolin-4(3H)-one], with “did not display lethality”.
Same read-out and setting: the value for `CC(C)Oc1ccccc1-n1c(CN2CCN(C(=O)c3ccc(Cl)cc3)CC2)nc2ccccc2c1=O` [dMK, 2-((4-(4-chlorophenylcarbonyl)piperazin-1-yl)methyl)-3-(2-isopropoxyphenyl)quinazolin-4(3H)-one] was “did not display lethality”.
